Measured values taken from patent US20240417410A1, “TRICYCLIC COMPOUNDS FOR THE TREATMENT OF CANCER” (Hoffmann-La Roche Inc., priority 2023, published 2024).

Key:
KRAS G12C-BRAF complex = KRAS G12C-BRAF complex (Homo sapiens (Human), UniProt P01116+P62937, G12C); assay: KRAS-BRAF with CYPA (500 nM) interaction assay (TR-FRET, Example 136); assay type: biochemical; settings: KRAS G12C-BRAF disruption
[1] = system: phosphorylation of ERK, KRAS G12V in SW620; assay: pERK inhibition assay; assay type: cell-based; settings: Homo sapiens, SW-620, 4 h, SW620 cells
Procedure, shortened: (§1)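 NCI-H358 (KRAS G12C), AGS (G12D) and SW620 (G12V) cells plated overnight, then treated with compound for 4 h in 0.5% DMSO. After fixing and methanol permeabilisation, phospho-ERK was detected by in-cell ELISA (HRP/TMB, OD450). IC50 from a 4-parameter sigmoidal fit.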

[2] = system: phosphorylation of ERK, KRAS G12C in NCI-H358 cells; assay: pERK inhibition assay; assay type: cell-based; settings: Homo sapiens, NCI-H358, 4 h
Procedure, shortened: as §1

[3] = system: phosphorylation of ERK, KRAS G12D in AGS cells; assay: pERK inhibition assay; assay type: cell-based; settings: Homo sapiens, AGS, 4 h
Procedure, shortened: as §1

AGS cells (KRAS G12D) = assay: Cell viability assay (Cell Counting Kit-8, 3-day); assay type: cell-based, human; settings: Homo sapiens, 72 h, 72 hrs incubation
Procedure, shortened: (§2)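 After overnight attachment, cells received compounds (0.5% DMSO) for 72 hrs; viability was then quantified with CCK-8, reading OD450 minus OD650, and IC50 values were obtained from a 4-parameter concentration-response fit.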

SW620 cells (KRAS G12V) = assay: Cell viability assay (Cell Counting Kit-8, 3-day); assay type: cell-based, human; settings: Homo sapiens, SW-620; SW620, 72 hrs incubation
Procedure, shortened: as §2

[4] = system: NCI-H358 cells (KRAS G12C); assay: Cell viability assay (Cell Counting Kit-8, 3-day); assay type: cell-based, human; settings: Homo sapiens, NCI-H358, 72 h, NCI-H358, 72 hrs incubation
Procedure, shortened: as §2

KRAS G12C-BRAF complex, sequence (P01116-2 other isoform, or with tags, fused parts or gaps G12C): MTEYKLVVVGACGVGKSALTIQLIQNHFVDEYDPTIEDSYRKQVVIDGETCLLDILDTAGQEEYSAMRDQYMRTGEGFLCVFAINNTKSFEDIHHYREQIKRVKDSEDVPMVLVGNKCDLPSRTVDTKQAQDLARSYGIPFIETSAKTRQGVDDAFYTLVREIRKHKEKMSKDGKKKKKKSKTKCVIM
KRAS G12C-BRAF complex, sequence (P62937 whole entry): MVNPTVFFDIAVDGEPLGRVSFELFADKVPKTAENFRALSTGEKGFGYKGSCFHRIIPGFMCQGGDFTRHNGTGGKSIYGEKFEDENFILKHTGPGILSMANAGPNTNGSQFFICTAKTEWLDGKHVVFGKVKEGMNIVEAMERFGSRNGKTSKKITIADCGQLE

Row | SMILES | IC50 (KRAS G12C-BRAF complex) [nM] | IC50 [1] [nM] | IC50 [2] [nM] | IC50 [3] [nM] | IC50 (AGS cells (KRAS G12D)) [nM] | IC50 (SW620 cells (KRAS G12V)) [nM] | IC50 [4] [nM]
1 | CO[C@@H](C)c1ncc(N2CCOCC2)cc1-c1c2c3cc(cc4c3n1CCC4)-c1csc(n1)C[C@H](NC(=O)[C@@H]1C[C@H]1C1CC1)C(=O)N1CCC[C@H](N1)C(=O)OCC(C)(C)C2 (atropisomer, axis not shown; (M)) [Example 37, (1R,2S)-2-cyclopropyl-N-[(7S,13S)-(20M)-20-[2-[(1S)-1-methoxyethyl]-5-morpholino-3-pyridyl]-17,17-dimethyl-8,14-dioxo-15-oxa-4-thia-9,21,30,31-tetrazahexacyclo[23.3.1.1^2,5.1^9,13.0^19,27.0^21,26]hentriaconta-1 (29),2,5 (31),19,25,27-hexaen-7-yl]cyclopropanecarboxamide] | 20.5 | 0.6 | 0.9 | 9.1 | 28.3 | 2.1 | 7.8
2 | CO[C@@H](C)c1ncc(N2CCN(C)CC2)cc1-c1c2c3cc(cc4c3n1CCO4)-c1csc(n1)C[C@H](NC(=O)C1(C)CC1(F)F)C(=O)N1CCC[C@H](N1)C(=O)OCC(C)(C)C2 (stereo partly drawn) [Example 54, 2,2-difluoro-N-[(7S,13S)-(20M)-20-[2-[(1S)-1-methoxyethyl]-5-(4-methylpiperazin-1-yl)-3-pyridyl]-17,17-dimethyl-8,14-dioxo-15,24-dioxa-4-thia-9,21,30,31-tetrazahexacyclo[23.3.1.1^2,5.1^9,13.0^19,27.0^21,26]hentriaconta-1 (29),2,5 (31), 19,25,27-hexaen-7-yl]-1-methyl-cyclopropanecarboxamide] | 23.3 | 1 | 1.3 | 8.8 | 36.8 | 3 | 12.1
3 | CO[C@@H](C)c1ncc(N2CCNCC2)cc1-c1c2c3cc(cc4c3n1CCC4)-c1csc(n1)C[C@H](NC(=O)[C@H]1[C@H](C)[C@@H]1C)C(=O)N1CCC[C@H](N1)C(=O)OCC(C)(C)C2 (atropisomer, axis not shown; (M)) [Example 108, (1r,2R,3S)-N-[(7S,13S)-(20M)-20-[2-[(1S)-1-methoxyethyl]-5-piperazin-1-yl-3-pyridyl]-17,17-dimethyl-8,14-dioxo-15-oxa-4-thia-9,21,30,31-tetrazahexacyclo[23.3.1.1^2,5.1^9,13.0^19,27.0^21,26]hentriaconta-1 (28),2,5 (31), 19,25 (29),26-hexaen-7-yl]-2,3-dimethyl-cyclopropanecarboxamide] | 4.6 | 0.5 | 1.8 | 3.9 | 1.8 | 0.5 | 2.2
4 | CO[C@@H](C)c1ncc(N2CCN(C)CC2)cc1-c1c2c3cc(cc4c3n1CC(F)(F)C4)-c1csc(n1)C[C@H](NC(=O)[C@H]1C[C@@H]1c1cncnc1)C(=O)N1CCC[C@H](N1)C(=O)OCC(C)(C)C2 (atropisomer, axis not shown; (M)) [Example 95] | 13.7 | 0.4 | 0.5 | 3.4 | 8.7 | 1.3 | 4
5 | CO[C@@H](C)c1ncc(N2CCN3CCCC[C@@H]3C2)cc1-c1c2c3cc(cc4c3n1CCC4)-c1csc(n1)C[C@H](NC(=O)[C@H]1C[C@@H]1c1cccnc1)C(=O)N1CCC[C@H](N1)C(=O)OCC(C)(C)C2 (atropisomer, axis not shown; (M)) [Example 102, (1S,2S)-N-[(7S,13S)-(20M)-20-[5-[(9αR)-1,3,4,6,7,8,9,9a-octahydropyrido[1,2-a]pyrazin-2-yl]-2-[(1S)-1-methoxyethyl]-3-pyridyl]-17,17-dimethyl-8,14-dioxo-15-oxa-4-thia-9,21,30,31-tetrazahexacyclo[23.3.1.1^2,5.1^9,13.0^19,27.0^21,26]hentriaconta-1 (28),2,5 (31),19,25 (29),26-hexaen-7-yl]-2-(3-pyridyl)cyclopropanecarboxamide] | 6.5 | 0.7 | 1.1 | 2 | 4.9 | 0.4 | 1.2
6 | CO[C@@H](C)c1ncc(N2CCN(C)CC2)cc1-c1c2c3cc(cc4c3n1CCO4)-c1csc(n1)C[C@H](NC(=O)[C@H]1C[C@@H]1c1ccccc1)C(=O)N1CCC[C@H](N1)C(=O)OCC(C)(C)C2 (atropisomer, axis not shown; (M)) [Example 51, (1S,2S)-N-[(7S,13S)-(20M)-20-[2-[(1S)-1-methoxyethyl]-5-(4-methylpiperazin-1-yl)-3-pyridyl]-17,17-dimethyl-8,14-dioxo-15,24-dioxa-4-thia-9,21,30,31-tetrazahexacyclo[23.3.1.1^2,5.1^9,13.0^19,27.0^21,26]hentriaconta-1 (29),2,5 (31), 19,25,27-hexaen-7-yl]-2-phenyl-cyclopropanecarboxamide] | 21.1 | 0.7 | 1 | 4.8 | 13.3 | 1.4 | 5.9
7 | CO[C@@H](C)c1ncc(N2CCN(C)CC2)cc1-c1c2c3cc(cc4c3n1CCO4)-c1csc(n1)C[C@H](NC(=O)C1(C)CC1C)C(=O)N1CCC[C@H](N1)C(=O)OCC(C)(C)C2 (stereo partly drawn) [Example 55, N-[(7S,13S)-(20M)-20-[2-[(1S)-1-methoxyethyl]-5-(4-methylpiperazin-1-yl)-3-pyridyl]-17,17-dimethyl-8,14-dioxo-15,24-dioxa-4-thia-9,21,30,31-tetrazahexacyclo[23.3.1.1^2,5.1^9,13.0^19,27.0^21,26]hentriaconta-1 (29),2,5 (31), 19,25,27-hexaen-7-yl]-1,2-dimethyl-cyclopropanecarboxamide] | 23.6 | 3.1 | 4.9 | 18.1 | 69.1 | 5.6 | 48.3
8 | CO[C@@H](C)c1ncc(N2CCN(C)CC2)cc1-c1c2c3cc(cc4c3n1CCC4)-c1csc(n1)C[C@H](NC(=O)[C@@H]1C[C@H]1c1cncc(C)c1)C(=O)N1CCC[C@H](N1)C(=O)OCC(C)(C)C2 (atropisomer, axis not shown; (M)) [Example 120, (1R,2R)-N-[(7S,13S)-(20M)-20-[2-[(1S)-1-methoxyethyl]-5-(4-methylpiperazin-1-yl)-3-pyridyl]-17,17-dimethyl-8,14-dioxo-15-oxa-4-thia-9,21,30,31-tetrazahexacyclo[23.3.1.1^2,5.1^9,13.0^19,27.0^21,26]hentriaconta-1 (28),2,5 (31), 19,25 (29),26-hexaen-7-yl]-2-(5-methyl-3-pyridyl)cyclopropanecarboxamide] | 20.4 | 0.9 | 1.1 | 2.9 | 2.2 | 0.4 | 1.4
9 | CO[C@@H](C)c1ncc(N2CCOCC2)cc1-c1c2c3cc(cc4c3n1CCC4)-c1csc(n1)C[C@H](NC(=O)[C@H]1C[C@@H]1c1cncnc1)C(=O)N1CCC[C@H](N1)C(=O)OCC(C)(C)C2 (atropisomer, axis not shown; (M)) [Example 94, (1S,2S)-N-[(7S,13S)-(20M)-20-[2-[(1S)-1-methoxyethyl]-5-morpholino-3-pyridyl]-17,17-dimethyl-8,14-dioxo-15-oxa-4-thia-9,21,30,31-tetrazahexacyclo[23.3.1.1^2,5.1^9,13.0^19,27.0^21,26]hentriaconta-1 (28),2,5 (31),19,25 (29),26-hexaen-7-yl]-2-pyrimidin-5-yl-cyclopropanecarboxamide] | 6.9 | 0.4 | 0.4 | 2.4 | 6.9 | 0.5 | 2.3
10 | CO[C@@H](C)c1ncc(N2CCN(CC(F)(F)F)CC2)cc1-c1c2c3cc(cc4c3n1CCO4)-c1csc(n1)C[C@H](NC(=O)[C@H]1C[C@@H]1c1cccnc1)C(=O)N1CCC[C@H](N1)C(=O)OCC(C)(C)C2 (atropisomer, axis not shown; (M)) [Example 98, (1S,2S)-N-[(7S,13S)-(20M)-20-[2-[(1S)-1-methoxyethyl]-5-[4-(2,2,2-trifluoroethyl)piperazin-1-yl]-3-pyridyl]-17,17-dimethyl-8,14-dioxo-15,24-dioxa-4-thia-9,21,30,31-2,5 9,13 19,27 21,26]hentriaconta-1 (28),2,5 (31),19,25 (29),26-hexaen-tetrazahexacyclo[23.3.1.1″>0.1″>7-yl]-2-(3-pyridyl)cyclopropanecarboxamide] | 11.1 | 0.5 | 0.9 | 4.6 | 8.1 | 0.6 | 4
